Reference: US20220242870A1, “HETEROCYCLE-FUSED PYRIMIDINE DERIVATIVE AND USE THEREOF” (VORONOI Inc., priority 2019, published 2022)

Experiments:
MCF-7 cells = assay: Breast cancer cell line proliferation inhibitory activity (CellTiter-Glo 2.0); assay type: cell-based; conditions: Homo sapiens, MCF7, 120 hours
Description: In order to evaluate the breast cancer cell line cell proliferation inhibitory activities of Examples according to the present invention, the following experiment was performed. Breast cancer cells of MCF-7 (Korean Cell Line Bank) were planted in a clear bottom white 96-well plate (Corning) so as to be 3×10^3/150 μl/well, and a culture solution comprising the compound continuously diluted in multiples of 3 at 12 concentrations (0.00001-2 mM) and a DMSO control group was added by 0.5 μl/well and treated so that the final concentration was 0.00005-10 μM, and then cultured in a 37° C. CO2 incubator for 120 hours. After 120 hours, the plate treated with the compound is taken out, and CellTiter-Glo® 2.0 Assay (Promega) solution is treated at 150 μl/well and then they mix well. They mix well at room temperature for 10 minutes or so, and the fluorescence is measured with a microplate reader. The data were expressed as a percentage in proportion to the vehicle standard treated cells, the GI50 (nM) values were calculated using GraphPad Prism 8.3.0 (GraphPad software Inc., San Diego), and the results were shown in Table 3 below.

human GST-HPK1 (1-346) = biological target: T1, human GST-HPK1 (1-346) (Homo sapiens, UniProt Q92918); assay: HPK1 enzyme inhibitory ability (ADP-Glo kinase assay); assay type: biochemical; conditions: human GST-HPK1 3 ng, ATP 3 uM, 25° C. 2 hours
T1 construct: purified human GST-HPK1 (1-346, Signalchem) enzyme; purchased Signalchem
T1 sequence (Q92918 1-346): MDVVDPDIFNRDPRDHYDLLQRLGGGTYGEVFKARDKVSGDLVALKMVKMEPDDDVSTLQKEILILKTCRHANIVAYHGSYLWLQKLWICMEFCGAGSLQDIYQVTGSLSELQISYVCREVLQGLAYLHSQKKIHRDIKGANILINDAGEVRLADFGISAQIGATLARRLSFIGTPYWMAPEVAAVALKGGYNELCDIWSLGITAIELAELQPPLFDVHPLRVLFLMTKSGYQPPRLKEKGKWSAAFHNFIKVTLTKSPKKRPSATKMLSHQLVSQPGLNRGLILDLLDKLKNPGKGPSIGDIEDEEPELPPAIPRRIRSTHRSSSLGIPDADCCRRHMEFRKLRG
Outline: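 Human GST-HPK1(1-346), 3 ng, reacted with 3 uM ATP and specific substrate in 40 mM Tris-HCl pH 7.4, 20 mM MgCl2, 0.5 mg/mL BSA, 50 uM DTT for 2 h at 25° C. ADP-Glo luminescence read; IC50 (nM) relative to untreated solvent control.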

MV4-11 cells = assay: AML cell proliferation inhibitory activity (CellTiter-Glo); assay type: cell-based; conditions: Homo sapiens, 72 hours
Description: The inhibitory activities of the example compounds according to the present invention on the proliferation of acute myeloid leukemia (AML) cells expressing the FLT3 mutant gene were evaluated. Specifically, RS4;11 and MV4-11 cells as acute myeloid leukemia cells expressing the FLT3 mutant gene were cultured in RPMI-1640 (Invitrogen) adding 10% FBS. The cells were seeded into each well of a clear bottom white 96-well plate (Corning) at 3000 to 5000 cells 24 hours before compound treatment. The compound was diluted in DMSO (diluted each three-fold, to a total of 12 concentrations) and injected at 0.5 μL each so as to be a final concentration of 0.3 nM to 50 μM. After 72 hours of the compound treatment, they were treated with CellTiter-Glo Luminescent Cell Viability assay (Promega) and stored at room temperature for 10 minutes, and luminescence intensities were measured with a reader (SynergyNeo, Biotek) to count viable cells. Each experiment was performed three times repeatedly. The result values were calculated as the cell growth rate (%) compared to the control treated with the solvent. The graph was derived using the GraphPad Prism program (version 5.0), the GI50 (nM) values were calculated, and the results were shown in Table 3 below.

human FLT3-ITD enzyme = biological target: T2, human FLT3-ITD enzyme (Homo sapiens, UniProt P36888); assay: FLT3 enzyme inhibitory ability (ADP-Glo kinase assay); assay type: biochemical; conditions: human FLT3-ITD enzyme 10 ng, ATP 10 μM, 25° C. 1 hour
T2 sequence (P36888 1-993): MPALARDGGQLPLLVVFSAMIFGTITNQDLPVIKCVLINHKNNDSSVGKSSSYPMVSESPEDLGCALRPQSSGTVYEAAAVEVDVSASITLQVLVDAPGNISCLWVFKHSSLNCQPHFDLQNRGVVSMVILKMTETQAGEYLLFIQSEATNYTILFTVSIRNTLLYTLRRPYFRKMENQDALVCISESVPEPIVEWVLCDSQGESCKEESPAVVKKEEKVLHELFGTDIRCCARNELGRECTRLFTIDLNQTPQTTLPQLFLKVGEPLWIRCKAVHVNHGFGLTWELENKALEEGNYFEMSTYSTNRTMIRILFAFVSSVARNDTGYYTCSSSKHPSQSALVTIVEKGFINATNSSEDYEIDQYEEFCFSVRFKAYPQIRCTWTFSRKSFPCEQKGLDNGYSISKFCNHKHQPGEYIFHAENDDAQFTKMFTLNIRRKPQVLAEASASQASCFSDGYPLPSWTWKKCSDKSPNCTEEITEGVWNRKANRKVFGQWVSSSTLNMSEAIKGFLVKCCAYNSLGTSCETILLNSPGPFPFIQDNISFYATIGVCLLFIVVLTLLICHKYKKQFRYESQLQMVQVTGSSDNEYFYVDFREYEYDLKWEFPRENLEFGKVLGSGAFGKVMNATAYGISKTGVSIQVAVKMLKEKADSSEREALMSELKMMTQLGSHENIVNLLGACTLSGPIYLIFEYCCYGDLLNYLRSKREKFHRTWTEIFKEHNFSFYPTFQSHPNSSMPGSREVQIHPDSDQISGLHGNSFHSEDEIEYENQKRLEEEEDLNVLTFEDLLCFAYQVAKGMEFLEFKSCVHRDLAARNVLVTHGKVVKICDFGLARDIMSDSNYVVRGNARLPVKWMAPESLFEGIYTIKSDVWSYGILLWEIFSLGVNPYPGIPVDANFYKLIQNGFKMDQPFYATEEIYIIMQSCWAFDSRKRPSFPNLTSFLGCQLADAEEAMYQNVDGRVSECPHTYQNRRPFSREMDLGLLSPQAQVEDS
Outline: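 Purified human FLT3-ITD (10 ng) with 10 μM ATP and specific substrate in 40 mM Tris-HCl pH 7.4, 20 mM MgCl2, 0.5 mg/mL BSA, 50 μM DTT, 1 h at 25 °C. ADP formation read by ADP-Glo luminescence; IC50 (nM) versus solvent-treated control.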

With `COc1cc(Nc2nc(N3N=CCC3c3ccccc3)c3sccc3n2)ccc1N1CCC(N2CCN(C)CC2)CC1` (stereo not drawn) [Example 8, N-(3-methoxy-4-(4-(4-methylpiperazin-1-yl)piperidin-1-yl)phenyl)-4-(5-phenyl-4,5-dihydro-1H-pyrazol-1-yl)thieno[3,2-d]pyrimidin-2-amine] the GI50 (MCF-7 cells) was > 500 nM, the IC50 (human GST-HPK1 (1-346)) was > 500 nM and the GI50 (MV4-11 cells) was ≥ 250 nM. For the same compound, the IC50 (human FLT3-ITD enzyme) was > 500 nM.
`CC(C)(O)CN1CCc2cc(Nc3nc(N4OCC[C@H]4c4ccccc4)c4cc[nH]c4n3)ccc2C1` [Example 111, (S)-2-methyl-1-(6-((4-(3-phenylisoxazolidin-2-yl)-7H-pyrrolo[2,3-d]pyrimidin-2-yl)amino)-3,4-dihydroisoquinolin-2(1H)-yl)propan-2-ol] was tested, and the GI50 (MCF-7 cells) was > 500 nM, the IC50 (human GST-HPK1 (1-346)) was ≥ 250 nM and the GI50 (MV4-11 cells) was ≥ 250 nM. The IC50 (human FLT3-ITD enzyme) was 250 to 500 nM.
For `Clc1c[nH]c2nc(Nc3ccc4c(c3)CCNC4)nc(N3OCC[C@H]3c3ccccc3)c12` [Example 117, (S)-N-(5-chloro-4-(3-phenylisoxazolidin-2-yl)-7H-pyrrolo[2,3-d]pyrimidin-2-yl)-1,2,3,4-tetrahydroisoquinolin-6-amine], the GI50 (MCF-7 cells) was ≥ 250 nM, the IC50 (human GST-HPK1 (1-346)) was ≥ 250 nM and the GI50 (MV4-11 cells) was > 500 nM. The IC50 (human FLT3-ITD enzyme) was ≥ 250 nM.
For `Cc1cn(Cc2cccc(Nc3nc(N4N=CCC4c4ccccc4)c4sccc4n3)c2)cn1` (stereo not drawn) [Example 24, N-(3-((4-methyl-1H-imidazol-1-yl)methyl)phenyl)-4-(5-phenyl-4,5-dihydro-1H-pyrazol-1-yl)thieno[3,2-d]pyrimidin-2-amine], the GI50 (MV4-11 cells) was > 500 nM.
In the case of `COc1cc(Nc2nc(N3N=CCC3c3ccccc3)c3sccc3n2)ccc1C(=O)NC1CCN(C)CC1` (stereo not drawn) [Example 52, 2-methoxy-N-(1-methylpiperidin-4-yl)-4-((4-(5-phenyl-4,5-dihydro-1H-pyrazol-1-yl)thieno[3,2-d]pyrimidin-2-yl)amino)benzamide], the GI50 (MV4-11 cells) is reported as ≥ 250 nM and the IC50 (human FLT3-ITD enzyme) is reported as > 500 nM.
`Cc1cc(N2CCOCC2)ccc1Nc1nc(N2N=CCC2c2ccccc2)c2sccc2n1` (stereo not drawn) [Example 21, N-(2-methyl-4-morpholinophenyl)-4-(5-phenyl-4,5-dihydro-1H-pyrazol-1-yl)thieno[3,2-d]pyrimidin-2-amine] was tested, and the GI50 (MV4-11 cells) was > 500 nM.
For `C1=NN(c2nc(Nc3ccc(N4CCOCC4)cc3)nc3ccsc23)C(c2ccccc2)C1` (stereo not drawn) [Example 3, N-(4-morpholinophenyl)-4-(5-phenyl-4,5-dihydro-1H-pyrazol-1-yl)thieno[3,2-d]pyrimidin-2-amine], the GI50 (MV4-11 cells) was > 500 nM.
`CN1CCN(c2ccc(Nc3nc(N4OCC[C@@H]4c4ccccc4)c4cc[nH]c4n3)cc2)CC1` [Example 128, (R)-N-(4-(4-methylpiperazin-1-yl)phenyl)-4-(3-phenylisoxazolidin-2-yl)-7H-pyrrolo[2,3-d]pyrimidin-2-amine] showed a GI50 (MV4-11 cells) of 250 to 500 nM.
`CN(C)CCn1cc(Nc2nc(N3N=CCC3c3ccccc3)c3sccc3n2)cn1` (stereo not drawn) [Example 27, N-(1-(2-(dimethylamino)ethyl)-1H-pyrazol-4-yl)-4-(5-phenyl-4,5-dihydro-1H-pyrazol-1-yl)thieno[3,2-d]pyrimidin-2-amine] was tested, and the GI50 (MV4-11 cells) was > 500 nM.
`O=C(c1ccc(Nc2nc(N3N=CCC3c3ccccc3)c3sccc3n2)cc1)N1CCOCC1` (stereo not drawn) [Example 22, morpholino(4-((4-(5-phenyl-4,5-dihydro-1H-pyrazol-1-yl)thieno[3,2-d]pyrimidin-2-yl)amino)phenyl)methanone] was tested, and the GI50 (MV4-11 cells) was > 500 nM.
For `CN1CCN(c2ccc(Nc3nc(N4N=CCC4c4ccccc4)c4sccc4n3)nc2)CC1` (stereo not drawn) [Example 4, N-(5-(4-methylpiperazin-1-yl)pyridin-2-yl)-4-(5-phenyl-4,5-dihydro-1H-pyrazol-1-yl)thieno[3,2-d]pyrimidin-2-amine], the GI50 (MV4-11 cells) was > 500 nM and the IC50 (human FLT3-ITD enzyme) was > 500 nM.
In the case of `COc1cc(N2CCC(N3CCN(C)CC3)CC2)ccc1Nc1nc(N2N=CCC2c2ccccc2)c2sccc2n1` (stereo not drawn) [Example 10, N-(2-methoxy-4-(4-(4-methylpiperazin-1-yl)piperidin-1-yl)phenyl)-4-(5-phenyl-4,5-dihydro-1H-pyrazol-1-yl)thieno[3,2-d]pyrimidin-2-amine], the GI50 (MV4-11 cells) is reported as > 500 nM and the IC50 (human FLT3-ITD enzyme) is reported as ≥ 250 nM.
For `COc1cc(Nc2nc(N3OCC[C@@H]3c3ccccc3)c3cc[nH]c3n2)ccc1N1CCC(N2CCN(C)CC2)CC1` [Example 129, (R)-N-(3-methoxy-4-(4-(4-methylpiperazin-1-yl)piperidin-1-yl)phenyl)-4-(3-phenylisoxazolidin-2-yl)-7H-pyrrolo[2,3-d]pyrimidin-2-amine], the GI50 (MV4-11 cells) was 250 to 500 nM and the IC50 (human FLT3-ITD enzyme) was > 500 nM.
`Cc1cn(Cc2ccc(Nc3nc(N4N=CCC4c4ccccc4)c4sccc4n3)cc2)cn1` (stereo not drawn) [Example 23, N-(4-((4-methyl-1H-imidazol-1-yl)methyl)phenyl)-4-(5-phenyl-4,5-dihydro-1H-pyrazol-1-yl)thieno[3,2-d]pyrimidin-2-amine] was tested, and the GI50 (MV4-11 cells) was > 500 nM.
`COc1cc(Nc2nc(N3OCC[C@H]3c3ccccc3)c3cc[nH]c3n2)ccc1N1CCN(CCO)CC1` [Example 82, (S)-2-(4-(2-methoxy-4-((4-(3-phenylisoxazolidin-2-yl)-7H-pyrrolo[2,3-d]pyrimidin-2-yl)amino)phenyl)piperazin-1-yl)ethan-1-ol] was tested, and the GI50 (MCF-7 cells) was > 500 nM, the IC50 (human GST-HPK1 (1-346)) was ≥ 250 nM and the IC50 (human FLT3-ITD enzyme) was ≥ 250 nM.
With `CN(C)[C@H]1CCN(c2cccc(Nc3nc(N4OCC[C@@H]4c4ccccc4)c4sccc4n3)c2)C1` [Example 64, N-(3-((S)-3-(dimethylamino)pyrrolidin-1-yl)phenyl)-4-((R)-3-phenylisoxazolidin-2-yl)thieno[3,2-d]pyrimidin-2-amine] the GI50 (MCF-7 cells) was > 500 nM, the IC50 (human GST-HPK1 (1-346)) was > 500 nM and the IC50 (human FLT3-ITD enzyme) was > 500 nM.
In the case of `CN(C)[C@H]1CCN(c2cccc(Nc3nc(N4OCC[C@H]4c4ccccc4)c4sccc4n3)c2)C1` [Example 62, N-(3-((S)-3-(dimethylamino)pyrrolidin-1-yl)phenyl)-4-((S)-3-phenylisoxazolidin-2-yl)thieno[3,2-d]pyrimidin-2-amine], the GI50 (MCF-7 cells) is reported as > 500 nM, the IC50 (human GST-HPK1 (1-346)) is reported as > 500 nM and the IC50 (human FLT3-ITD enzyme) is reported as > 500 nM.
